From patent publication US9586961B2, “Homopiperazine derivatives as protein tyrosine kinase inhibitors and pharmaceutical use thereof” (LEO PHARMA A/S, priority 2010, dated 2017)

Tests used:
Type in all cases: biochemical
TYK2 = target: T1, TYK2 (Homo sapiens, UniProt P29597); experiment: TYK2 kinase assay (HTRF, inhibition of phosphorylation of a synthetic peptide); conditions: catalytic domain aa 871-1187, GST-tag; 13 μM ATP (Km); read-out: TYK2 kinase inhibitory activity (EC50)
T1 construct: JAK1 (aa 850-1154) and TYK2 (aa 871-1187) are expressed with an N-terminally fused GST-tag; GST (N); purchased Carna Biosciences, Inc; host or cells: baculovirus expression system
T1 sequence (P29597 871-1187): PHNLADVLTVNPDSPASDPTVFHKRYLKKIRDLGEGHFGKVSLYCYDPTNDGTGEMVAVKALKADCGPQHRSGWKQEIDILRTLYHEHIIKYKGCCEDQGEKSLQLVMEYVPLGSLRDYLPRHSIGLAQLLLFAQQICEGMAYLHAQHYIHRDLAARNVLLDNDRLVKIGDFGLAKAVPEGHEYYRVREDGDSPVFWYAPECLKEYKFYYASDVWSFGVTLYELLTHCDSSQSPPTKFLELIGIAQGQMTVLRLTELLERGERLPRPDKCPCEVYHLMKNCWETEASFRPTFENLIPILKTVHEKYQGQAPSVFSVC
Procedure, shortened: (§1)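 HTRF detection (streptavidin-XL665, cryptate anti-phospho antibody, overnight in the dark) after EDTA stop of a 20-30 min RT reaction on 1 μM TK substrate-biotin. Km-level ATP per kinase: 7 μM for JAK1 and 13 μM for TYK2, both N-terminal GST, with 50 nM SEB; 4 μM for JAK2 and 2 μM for JAK3, both His-tagged. Catalytic domains only; DMSO 0.75%.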

JAK1 = target: T2, JAK1 (Homo sapiens, UniProt P23458); experiment: JAK1 kinase assay (HTRF, inhibition of phosphorylation of a synthetic peptide); conditions: catalytic domain aa 850-1154, GST-tag; 7 μM ATP (Km); read-out: JAK1 kinase inhibitory activity (EC50)
T2 construct: JAK1 (aa 850-1154) and TYK2 (aa 871-1187) are expressed with an N-terminally fused GST-tag; GST (N); purchased Carna Biosciences, Inc; host or cells: baculovirus expression system
T2 sequence (P23458 850-1154): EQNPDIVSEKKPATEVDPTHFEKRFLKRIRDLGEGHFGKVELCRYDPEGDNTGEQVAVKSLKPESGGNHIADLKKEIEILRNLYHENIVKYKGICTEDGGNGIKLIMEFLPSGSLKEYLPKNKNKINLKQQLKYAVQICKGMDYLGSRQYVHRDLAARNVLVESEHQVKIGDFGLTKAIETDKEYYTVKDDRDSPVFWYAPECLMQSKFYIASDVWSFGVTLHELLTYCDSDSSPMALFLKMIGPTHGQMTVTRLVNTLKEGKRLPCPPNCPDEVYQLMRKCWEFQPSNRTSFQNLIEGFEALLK
Procedure, shortened: as §1

JAK3 = target: T3, JAK3 (Homo sapiens, UniProt P52333); experiment: JAK3 kinase assay (HTRF, inhibition of phosphorylation of a synthetic peptide); conditions: catalytic domain, His-tag; 2 μM ATP (Km); read-out: JAK3 kinase inhibitory activity (EC50)
T3 construct: All four purified enzymes contain only the catalytic domain; His (N); purchased Carna Biosciences, Inc; host or cells: baculovirus expression system
T3 sequence (P52333 822-1111 limits assumed): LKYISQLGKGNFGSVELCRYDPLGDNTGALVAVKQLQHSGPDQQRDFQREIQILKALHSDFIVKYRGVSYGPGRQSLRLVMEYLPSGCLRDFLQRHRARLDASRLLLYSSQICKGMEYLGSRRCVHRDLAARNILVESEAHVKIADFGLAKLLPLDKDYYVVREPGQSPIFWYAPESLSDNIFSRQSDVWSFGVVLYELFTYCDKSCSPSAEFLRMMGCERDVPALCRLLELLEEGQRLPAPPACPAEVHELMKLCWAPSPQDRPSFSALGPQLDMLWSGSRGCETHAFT
Procedure, shortened: as §1

JAK2 = target: T4, JAK2 (Homo sapiens, UniProt O60674); experiment: JAK2 kinase assay (HTRF, inhibition of phosphorylation of a synthetic peptide); conditions: catalytic domain, His-tag; 4 μM ATP (Km); read-out: JAK2 kinase inhibitory activity (EC50)
T4 construct: All four purified enzymes contain only the catalytic domain; His (N); purchased Carna Biosciences, Inc; host or cells: baculovirus expression system
T4 sequence (O60674 849-1124 limits assumed): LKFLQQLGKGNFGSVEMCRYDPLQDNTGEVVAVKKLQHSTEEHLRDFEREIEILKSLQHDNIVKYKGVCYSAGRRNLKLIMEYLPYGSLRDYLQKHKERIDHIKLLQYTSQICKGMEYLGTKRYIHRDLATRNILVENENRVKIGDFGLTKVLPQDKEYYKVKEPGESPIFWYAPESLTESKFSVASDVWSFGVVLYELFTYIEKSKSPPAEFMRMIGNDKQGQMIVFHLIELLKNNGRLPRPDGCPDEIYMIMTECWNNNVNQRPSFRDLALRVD
Procedure, shortened: as §1

Row | Compound | EC50 (TYK2) [nM] | EC50 (JAK1) [nM] | EC50 (JAK3) [nM] | EC50 (JAK2) [nM]
1 | NS(=O)(=O)c1ccc(/C=C/C(=O)N2CCN(c3ncnc4[nH]ccc34)CC3(CC3)C2)cc1 [Example 54, 4-[(E)-3-oxo-3-[5-(7H-pyrrolo[2,3-d]pyrimidin-4-yl)-5,8-diazaspiro[2.6]nonan-8-yl]prop-1-enyl]benzenesulfonamide] | 100 to 1000 | < 100 | 100 to 1000 | < 100
2 | N#CC1(C(=O)N2CCCN(c3ncnc4[nH]ccc34)CC23CC3)CC1 [Example 60, 1-[5-(7H-pyrrolo[2,3-d]pyrimidin-4-yl)-5,9-diazaspiro[2.6]nonane-9-carbonyl]cyclopropanecarbonitrile] | > 1000 | 100 to 1000 | 100 to 1000 | < 100
3 | CS(=O)(=O)c1ccc(CC(=O)N2CCN(c3ncnc4[nH]ccc34)CC3(CC3)C2)cc1 [Example 55, 2-(4-methylsulfonylphenyl)-1-[5-(7H-pyrrolo[2,3-d]pyrimidin-4-yl)-5,8-diazaspiro[2.6]nonan-8-yl]ethanone] | > 1000 | < 100 | 100 to 1000 | < 100
4 | Cn1cc(S(N)(=O)=O)cc1C(=O)N1CCN(c2ncnc3[nH]ccc23)CC2(CC2)C1 [Example 36, 1-methyl-5-[5-(7H-pyrrolo[2,3-d]pyrimidin-4-yl)-5,8-diazaspiro[2.6]nonane-8-carbonyl]pyrrole-3-sulfonamide] | > 1000 | 100 to 1000 | 100 to 1000 | 100 to 1000
5 | Cn1c(C(=O)N2CCN(c3ncnc4[nH]ccc34)CC3(CC3)C2)ccc1S(N)(=O)=O [Example 35, 1-methyl-5-[5-(7H-pyrrolo[2,3-d]pyrimidin-4-yl)-5,8-diazaspiro[2.6]nonane-8-carbonyl]pyrrole-2-sulfonamide] | > 1000 | 100 to 1000 | 100 to 1000 | 100 to 1000
6 | Cc1cc(C(=O)N2CCN(c3ncnc4[nH]ccc34)CC3(CC3)C2)ccc1S(N)(=O)=O [Example 29, 2-methyl-4-[5-(7H-pyrrolo[2,3-d]pyrimidin-4-yl)-5,8-diazaspiro[2.6]nonane-8-carbonyl]benzenesulfonamide] | > 1000 | 100 to 1000 | 100 to 1000 | 100 to 1000
7 | COc1csc(C(=O)N2CCN(c3ncnc4[nH]ccc34)CC3(CC3)C2)c1 [Example 22, (4-methoxy-2-thienyl)-[5-(7H-pyrrolo[2,3-d]pyrimidin-4-yl)-5,8-diazaspiro[2.6]nonan-8-yl]methanone] | > 1000 | < 100 | 100 to 1000 | 100 to 1000
8 | CNS(=O)(=O)c1csc(C(=O)N2CCN(c3ncnc4[nH]ccc34)CC3(CC3)C2)c1C [Example 23, N,4-dimethyl-5-[5-(7H-pyrrolo[2,3-d]pyrimidin-4-yl)-5,8-diazaspiro[2.6]nonane-8-carbonyl]thiophene-3-sulfonamide] | > 1000 | 100 to 1000 | 100 to 1000 | < 100
9 | N#CCOc1cccc(CC(=O)N2CCN(c3ncnc4[nH]ccc34)CC3(CC3)C2)c1 [Example 17, 2-[3-[2-oxo-2-[5-(7H-pyrrolo[2,3-d]pyrimidin-4-yl)-5,8-diazaspiro[2.6]nonan-8-yl]ethyl]phenoxy]acetonitrile] | > 1000 | 100 to 1000 | 100 to 1000 | 100 to 1000
10 | N#Cc1ccc(C(=O)N2CCN(c3ncnc4[nH]ccc34)CC3(CC3)C2)s1 [Example 51, 5-[5-(7H-pyrrolo[2,3-d]pyrimidin-4-yl)-5,8-diazaspiro[2.6]nonane-8-carbonyl]thiophene-2-carbonitrile] | 100 to 1000 | < 100 | < 100 | < 100
11 | O=C(Cc1cccs1)N1CCN(c2ncnc3[nH]ccc23)CC2(CC2)C1 [Example 30, 1-[5-(7H-pyrrolo[2,3-d]pyrimidin-4-yl)-5,8-diazaspiro[2.6]nonan-8-yl]-2-(2-thienyl)ethanone] | 100 to 1000 | < 100 | 100 to 1000 | < 100
12 | N#Cc1csc(C(=O)N2CCN(c3ncnc4[nH]ccc34)CC3(CC3)C2)c1 [Example 19, 5-[5-(7H-pyrrolo[2,3-d]pyrimidin-4-yl)-5,8-diazaspiro[2.6]nonane-8-carbonyl]thiophene-3-carbonitrile] | > 1000 | 100 to 1000 | 100 to 1000 | < 100
13 | O=C(c1cc2c(s1)CCC2)N1CCN(c2ncnc3[nH]ccc23)CC2(CC2)C1 [Example 21, 5,6-dihydro-4H-cyclopenta[b]thiophen-2-yl-[5-(7H-pyrrolo[2,3-d]pyrimidin-4-yl)-5,8-diazaspiro[2.6]nonan-8-yl]methanone] | > 1000 | 100 to 1000 | 100 to 1000 | 100 to 1000
14 | N#Cc1ccccc1C(=O)N1CCN(c2ncnc3[nH]ccc23)CC2(CC2)C1 [Example 7, 2-[8-(7H-pyrrolo[2,3-d]pyrimidin-4-yl)-5,8-diazaspiro[2.6]nonane-5-carbonyl]benzonitrile] | > 1000 | > 1000 | > 1000 | 100 to 1000
15 | NS(=O)(=O)c1ccc(NC(=O)C(=O)N2CCN(c3ncnc4[nH]ccc34)CC3(CC3)C2)cc1 [Example 64, 2-oxo-2-[5-(7H-pyrrolo[2,3-d]pyrimidin-4-yl)-5,8-diazaspiro[2.6]nonan-8-yl]-N-(4-sulfamoylphenyl)acetamide] | 100 to 1000 | < 100 | < 100 | < 100
16 | COc1cc(OC)cc(C(=O)N2CCN(c3ncnc4[nH]ccc34)CC3(CC3)C2)c1 [Example 43, (3,5-dimethoxyphenyl)-[5-(7H-pyrrolo[2,3-d]pyrimidin-4-yl)-5,8-diazaspiro[2.6]nonan-8-yl]methanone] | > 1000 | > 1000 | > 1000 | > 1000
17 | N#CCCC(=O)N1CCCN(c2ncnc3[nH]ccc23)CC12CC2 [Example 61, 4-oxo-4-[5-(7H-pyrrolo[2,3-d]pyrimidin-4-yl)-5,9-diazaspiro[2.6]nonan-9-yl]butanenitrile] | > 1000 | 100 to 1000 | 100 to 1000 | 100 to 1000

The next lines start with the values.

Row | EC50 (TYK2) [nM] | EC50 (JAK1) [nM] | EC50 (JAK3) [nM] | EC50 (JAK2) [nM] | Compound
18 | 100 to 1000 | < 100 | 100 to 1000 | < 100 | O=C(c1csnn1)N1CCCN(c2ncnc3[nH]ccc23)CC12CC2 [Example 142, [5-(7H-pyrrolo[2,3-d]pyrimidin-4-yl)-5,9-diazaspiro[2.6]nonan-9-yl]-(thiadiazol-4-yl)methanone]
19 | 100 to 1000 | < 100 | 100 to 1000 | < 100 | N#Cc1ccc(OCC(=O)N2CCN(c3ncnc4[nH]ccc34)CC3(CC3)C2)cc1 [Example 106, 4-[2-oxo-2-[5-(7H-pyrrolo[2,3-d]pyrimidin-4-yl)-5,8-diazaspiro[2.6]nonan-8-yl]ethoxy]benzonitrile]
20 | > 1000 | 100 to 1000 | 100 to 1000 | 100 to 1000 | COCCNS(=O)(=O)c1ccc(C(=O)N2CCN(c3ncnc4[nH]ccc34)CC3(CC3)C2)cc1 [Example 74, N-(2-methoxyethyl)-4-[5-(7H-pyrrolo[2,3-d]pyrimidin-4-yl)-5,8-diazaspiro[2.6]nonane-8-carbonyl]benzenesulfonamide]
21 | > 1000 | 100 to 1000 | > 1000 | 100 to 1000 | CC1CN(c2ncnc3[nH]ccc23)CC2(CC2)CN1C(=O)CC1CCCC1 (stereo not shown) [Example 285, 2-cyclopentyl-1-[7-methyl-5-(7H-pyrrolo[2,3-d]pyrimidin-4-yl)-5,8-diazaspiro[2.6]nonan-8-yl]ethanone]
22 | > 1000 | > 1000 | > 1000 | > 1000 | c1ccc(CN2CCN(c3ncnc4[nH]ccc34)CC3(CC3)C2)cc1 [Example 107, 4-(5-benzyl-5,8-diazaspiro[2.6]nonan-8-yl)-7H-pyrrolo[2,3-d]pyrimidine]
23 | > 1000 | > 1000 | > 1000 | > 1000 | c1nc(N2CCNC3(CC2)CC3)c2cc[nH]c2n1 [Example 291]
24 | > 1000 | 100 to 1000 | 100 to 1000 | < 100 | N#Cc1cccc(CCC(=O)N2CCN(c3ncnc4[nH]ccc34)CC3(CC3)C2)c1 [Example 116, 3-[3-oxo-3-[5-(7H-pyrrolo[2,3-d]pyrimidin-4-yl)-5,8-diazaspiro[2.6]nonan-8-yl]propyl]benzonitrile]
25 | > 1000 | 100 to 1000 | > 1000 | 100 to 1000 | CN(C1CCCCC1)S(=O)(=O)N1CCN(c2ncnc3[nH]ccc23)CC2(CC2)C1 [Example 105, N-cyclohexyl-N-methyl-5-(7H-pyrrolo[2,3-d]pyrimidin-4-yl)-5,8-diazaspiro[2.6]nonane-8-sulfonamide]
